US20230365542A1, “Selective Agonists of 5-HT2A Receptor and Methods of Use” (Yale University, priority 2020, published 2023)
Like-named read-outs stand apart in the source and are kept apart here.

Assays:
[1] = target: T1, 5-HT2BR (Homo sapiens, UniProt P41595); experiment: Calcium flux assay (FLIPR, Fluo-4), 5-HT2BR stable cell line; format: cell-based; details: for 5-HT2BR Rmax ± S.E.M: value in parentheses
T1 construct: expressed in transfected cells; host or cells: Flp-In 293 T-Rex (tetracycline inducible)
Protocol: Stable cell lines for 5-HT2AR, 5-HT2BR and 5-HT2CR generated using the Flp-In 293 T-Rex Tetracycline inducible system (Invitrogen). Tetracycline-induced cells were seeded in 384-well poly-L-lysine plates at a density of 10,000 cells/well in DMEM containing 1% dialyzed FBS at least 16-24 hr before the calcium flux assay. On the day of the assay, the cells were incubated (20 ul/well) for 1 hr at 37° C. with Fluo-4 Direct dye (Invitrogen) reconstituted in FLIPR buffer (1×HBSS, 2.5 mM probenecid, and 20 mM HEPES, pH 7.4). After dye loading, cells were placed in a FLIPR^TETRA fluorescence imaging plate reader ([…]). Drug dilutions were prepared at 3× final concentration in drug buffer (1×HBSS, 20 mM HEPES, 0.1% BSA, 0.01% ascorbic acid, pH 7.4) and aliquoted into 384-well plates and placed in the FLIPR^TETRA for drug stimulation. The fluidics module and plate reader of the FLIPR^TETRA were programmed to read baseline fluorescence for 10s (1 read/s), then 10 ul of drug/well was added and read for 5 min (1 read/s). Fluorescence in each well was normalized to the average of the first 10 reads (i.e., baseline fluorescence). Then, the maximum-fold increase, which occurred within the first 60 s after drug addition, was determined and fold over baseline was plotted as a function of drug concentration. Data were normalized to % 5-HT stimulation and analyzed using “log(agonist) vs. response” in GraphPad Prism 9.0.

[2] = target: T2, 5-HT2AR (Homo sapiens, UniProt P28223); experiment: 5-HT2AR binding affinity (Ki), Table 8
T2 construct: expressed in transfected cells; host or cells: Flp-In 293 T-Rex (tetracycline inducible)

[3] = target: T2, 5-HT2AR; experiment: Calcium flux assay (FLIPR, Fluo-4), 5-HT2AR stable cell line; format: cell-based; details: for 5-HT2AR Rmax ± S.E.M: value in parentheses
[4] = target: T3, 5-HT2CR (Homo sapiens, UniProt P28335); experiment: Calcium flux assay (FLIPR, Fluo-4), 5-HT2CR stable cell line; format: cell-based; details: for 5-HT2CR Rmax ± S.E.M: value in parentheses
T3 sequence (P28335 33-458): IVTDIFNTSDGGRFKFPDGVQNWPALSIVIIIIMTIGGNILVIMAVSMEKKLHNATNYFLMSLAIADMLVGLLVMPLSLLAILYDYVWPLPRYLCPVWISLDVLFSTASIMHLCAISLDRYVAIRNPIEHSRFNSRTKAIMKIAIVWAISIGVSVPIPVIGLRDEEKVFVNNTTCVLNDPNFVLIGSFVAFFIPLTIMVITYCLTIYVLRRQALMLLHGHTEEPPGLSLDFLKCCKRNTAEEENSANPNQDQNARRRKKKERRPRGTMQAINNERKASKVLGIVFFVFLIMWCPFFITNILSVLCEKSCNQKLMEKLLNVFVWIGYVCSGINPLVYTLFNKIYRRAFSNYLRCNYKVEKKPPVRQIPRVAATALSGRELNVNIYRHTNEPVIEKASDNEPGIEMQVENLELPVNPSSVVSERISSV
Protocol: Stable cell lines for 5-HT2AR, 5-HT2BR and 5-HT2CR generated using the Flp-In 293 T-Rex Tetracycline inducible system (Invitrogen). Tetracycline-induced cells were seeded in 384-well poly-L-lysine plates at a density of 10,000 cells/well in DMEM containing 1% dialyzed FBS at least 16-24 hr before the calcium flux assay. On the day of the assay, the cells were incubated (20 ul/well) for 1 hr at 37° C. with Fluo-4 Direct dye (Invitrogen) reconstituted in FLIPR buffer (1×HBSS, 2.5 mM probenecid, and 20 mM HEPES, pH 7.4). After dye loading, cells were placed in a FLIPR^TETRA fluorescence imaging plate reader (Molecular Dynamics). Drug dilutions were prepared at 3× final concentration in drug buffer (1×HBSS, 20 mM HEPES, 0.1% BSA, 0.01% ascorbic acid, pH 7.4) and aliquoted into 384-well plates and placed in the FLIPR^TETRA for drug stimulation. The fluidics module and plate reader of the FLIPR^TETRA were programmed to read baseline fluorescence for 10s (1 read/s), then 10 ul of drug/well was added and read for 5 min (1 read/s). Fluorescence in each well was normalized to the average of the first 10 reads (i.e., baseline fluorescence). Then, the maximum-fold increase, which occurred within the first 60 s after drug addition, was determined and fold over baseline was plotted as a function of drug concentration. Data were normalized to % 5-HT stimulation and analyzed using “log(agonist) vs. response” in GraphPad Prism 9.0.

[5] = target: T3, 5-HT2CR; experiment: 5-HT2CR binding affinity (Ki), Table 8
[6] = target: T1, 5-HT2BR; experiment: 5-HT2BR binding affinity (Ki), Table 8
[7] = bracketed value below Ki, read-out: 5-HT2CR pKi ± S.E.M (converted)
[8] = bracketed value below Ki, read-out: 5-HT2AR pKi ± S.E.M (converted)
[9] = bracketed value below EC50, read-out: 5-HT2AR pEC50 ± S.E.M (converted)
[10] = bracketed value below Ki, read-out: 5-HT2BR pKi ± S.E.M (converted)
[11] = bracketed value below EC50, read-out: 5-HT2BR pEC50 ± S.E.M (converted)

T2 sequence (P28223 whole entry): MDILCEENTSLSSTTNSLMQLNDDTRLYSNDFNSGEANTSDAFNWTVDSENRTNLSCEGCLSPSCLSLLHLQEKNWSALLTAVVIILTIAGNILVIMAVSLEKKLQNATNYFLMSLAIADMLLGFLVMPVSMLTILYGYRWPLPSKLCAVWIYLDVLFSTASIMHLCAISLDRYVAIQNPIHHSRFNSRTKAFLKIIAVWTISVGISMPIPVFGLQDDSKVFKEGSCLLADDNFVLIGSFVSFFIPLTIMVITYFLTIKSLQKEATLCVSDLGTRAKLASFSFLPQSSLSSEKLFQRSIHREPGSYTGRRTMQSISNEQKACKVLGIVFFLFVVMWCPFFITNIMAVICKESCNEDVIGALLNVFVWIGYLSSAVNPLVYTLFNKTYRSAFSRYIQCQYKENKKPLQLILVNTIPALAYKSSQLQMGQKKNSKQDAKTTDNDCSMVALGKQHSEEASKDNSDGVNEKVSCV
T1 sequence (P41595 whole entry): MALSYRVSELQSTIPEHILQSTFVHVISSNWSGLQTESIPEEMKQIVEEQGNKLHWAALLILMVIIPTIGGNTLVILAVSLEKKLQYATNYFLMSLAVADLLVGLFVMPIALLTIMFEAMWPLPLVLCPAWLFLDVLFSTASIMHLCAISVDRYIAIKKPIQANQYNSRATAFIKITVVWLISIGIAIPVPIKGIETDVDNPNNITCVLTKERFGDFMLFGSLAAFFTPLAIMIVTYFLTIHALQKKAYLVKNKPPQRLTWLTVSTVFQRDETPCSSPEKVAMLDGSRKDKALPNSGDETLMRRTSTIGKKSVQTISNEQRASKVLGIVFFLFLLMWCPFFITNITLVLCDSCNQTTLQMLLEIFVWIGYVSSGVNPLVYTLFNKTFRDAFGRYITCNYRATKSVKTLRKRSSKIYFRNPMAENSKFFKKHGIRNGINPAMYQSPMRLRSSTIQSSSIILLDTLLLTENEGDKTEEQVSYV

| SMILES | 5-HT2BR EC50 [1] | Ki ([2]; read-out: 5-HT2AR Ki) [µM] | EC50 ([3]; read-out: 5-HT2AR EC50) [µM] | 5-HT2AR Rmax ± S.E.M [3] | 5-HT2CR EC50 [4] | Ki [5, 7] [µM] | Ki ([5]; read-out: 5-HT2CR Ki) [µM] | Ki ([6]; read-out: 5-HT2BR Ki) [µM] | EC50 ([1]; read-out: 5-HT2BR EC50) [µM] | 5-HT2BR Rmax ± S.E.M [1] | Ki [2, 8] [µM] | EC50 [3, 9] [µM] | EC50 ([4]; bracketed value below EC50, read-out: 5-HT2CR pEC50 ± S.E.M (converted)) [µM] | EC50 ([4]; read-out: 5-HT2CR EC50) [µM] | 5-HT2CR Rmax ± S.E.M [4] | Ki [6, 10] [µM] | EC50 [1, 11] [µM] | 5-HT2AR EC50 [3] |
| --- | --- | --- | --- | --- | --- | --- | --- | --- | --- | --- | --- | --- | --- | --- | --- | --- | --- | --- |
| CCCCN1CC(c2c[nH]c3ncccc23)=C[C@H](C)C1 [Compound 22, 3-(1-butyl-5-methyl-1,2,5,6-tetrahydropyridin-3-yl)-1H-pyrrolo[2,3-b]pyridine] | antagonist | 5.27 | 2.26 | (23.8% | antagonist | 7.41 | 7.03 | 1.97 | – | – | – | – | – | – | – | – | – | – |
| C1=C(c2c[nH]c3ncccc23)CNCC1 [compound 49, 3-(1,2,5,6-tetrahydropyridin-3-yl)-1H-pyrrolo[2,3-b]pyridine] | – | – | – | (43.9% | – | 0.288 | – | – | 0.63 | (34.8% | 0.398 | 0.151 | 0.832 | 0.82 | (45.9% | 0.257 | – | – |
| CCCCCN1CC(c2cncc(Cl)c2)=C[C@H](C)C1 [Compound 10, 5′-chloro-5-methyl-1-pentyl-1,2,5,6-tetrahydro-3,3′-bipyridine] | – | 7.01 | – | (68.6% | – | – | 1.66 | – | – | (88.9% | – | 0.331 | – | > 10 | – | 0.00501 | 0.0245 | – |
| Cc1ncc(CCN2CC(c3c[nH]c4ncccc34)=C[C@H](C)C2)cn1 [compound 41, (S)-3-(5-methyl-1-(2-(2-methylpyrimidin-5-yl)ethyl)-1,2,5,6-tetrahydropyridin-3-yl)-1H-pyrrolo[2,3-b]pyridine] | antagonist | 0.025 | – | – | antagonist | 0.0288 | 0.03 | 0.82 | – | – | 0.0257 | – | – | – | – | – | – | antagonist |
| C[C@@H]1C=C(c2c[nH]c3ncccc23)CN(CC2CC2)C1 [compound 45, (R)-3-(1-(cyclopropylmethyl)-5-methyl-1,2,5,6-tetrahydropyridin-3-yl)-1H-pyrrolo[2,3-b]pyridine] | antagonist | 2.92 | 0.45 | (25.0% | antagonist | – | 4.41 | > 10 | – | – | 2.88 | 0.457 | – | – | – | – | – | – |
| c1cnc2[nH]cc(C3CCCNC3)c2c1 (single isomer, unassigned) [compound 51, 3-(piperidin-3-yl)-1H-pyrrolo[2,3-b]pyridine] | antagonist | 2.73 | 4.21 | (18.2% | antagonist | – | 0.48 | 0.5 | – | – | – | – | – | – | – | – | – | – |
| c1cnc2[nH]cc(C3CCCNC3)c2c1 (single isomer, unassigned) [compound 50, 3-(piperidin-3-yl)-1H-pyrrolo[2,3-b]pyridine] | – | 5.25 | 1.17 | (65.1% | – | – | 2.73 | 0.62 | 0.68 | (47.0% | – | – | – | > 10 | – | – | – | – |
| Cc1ncc(CCN2CC(c3c[nH]c4ncccc34)=C[C@@H](C)C2)cn1 [compound 40, (R)-3-(5-methyl-1-(2-(2-methylpyrimidin-5-yl)ethyl)-1,2,5,6-tetrahydropyridin-3-yl)-1H-pyrrolo[2,3-b]pyridine] | – | – | – | – | antagonist | – | 0.84 | 4.09 | 3.82 | (54.5% | 0.398 | – | – | – | – | 3.98 | – | antagonist |
| CCCN1CC(c2cncc(Cl)c2)=C[C@H](C)C1 [Compound 16, 5′-Chloro-5-methyl-1-propyl-1,2,5,6-tetrahydro-3,3′-bipyridine] | – | 7.32 | 1.06 | (48.7% | – | 6.31 | 6.52 | – | – | (74.9% | – | 1.05 | – | 6.76 | (34.4% | 0.0132 | 0.02 | – |
| C[C@@H]1C=C(c2cncc(Cl)c2)CN(CC2(O)COC2)C1 [Compound 7, 3-((5′-Chloro-5-methyl-5,6-dihydro-[3,3′-bipyridin]-1(2H)-yl)methyl)oxetan-3-ol] | antagonist | > 10 | > 10 | – | – | – | > 10 | 0.96 | – | – | – | – | – | – | – | – | – | – |
| C[C@@H]1C=C(c2c[nH]c3ncccc23)CNC1 [compound 38, (R)-3-(5-methyl-1,2,5,6-tetrahydropyridin-3-yl)-1H-pyrrolo[2,3-b]pyridine] | – | 0.68 | – | (90.1% | – | – | – | – | – | (82.9% | – | – | – | – | (75.0% | 0.295 | – | – |
| C[C@@H]1C=C(c2c[nH]c3ncccc23)CN(Cc2cnco2)C1 [compound 47, (R)-5-((3-methyl-5-(1H-pyrrolo[2,3-b]pyridin-3-yl)-3,6-dihydropyridin-1(2H)-yl)methyl)oxazole] | – | 7.19 | 0.99 | (68.3% | – | – | > 10 | > 10 | 0.94 | (75.8% | – | 0.977 | – | > 10 | – | – | – | – |
| C[C@@H]1C=C(c2c[nH]c3ncccc23)CN(C2CC2)C1 [compound 29, (R)-3-(1-cyclopropyl-5-methyl-1,2,5,6-tetrahydropyridin-3-yl)-1H-pyrrolo[2,3-b]pyridine] | – | 6.14 | 1.36 | (63.0% | – | – | > 10 | 1.66 | 5.15 | (74.7% | – | – | – | – | – | – | – | – |
| C[C@H]1C=C(c2c[nH]c3ncccc23)CN(C)C1 [compound 34, (S)-3-(1,5-dimethyl-1,2,5,6-tetrahydropyridin-3-yl)-1H-pyrrolo[2,3-b]pyridine] | antagonist | 1.52 | 1.14 | (7.1% | antagonist | 0.741 | 0.75 | 0.64 | – | – | – | – | – | – | – | – | – | – |
| C[C@H]1C=C(c2c[nH]c3ncccc23)CN(CC2CC2)C1 [compound 46, (S)-3-(1-(cyclopropylmethyl)-5-methyl-1,2,5,6-tetrahydropyridin-3-yl)-1H-pyrrolo[2,3-b]pyridine] | – | 2.44 | – | – | antagonist | – | 0.78 | 2.14 | 1.17 | (43.8% | – | – | – | – | – | – | – | antagonist |
| CCCN1CC(c2cncc(Cl)c2)=C[C@@H](C)C1 [Compound 15, 5′-Chloro-5-methyl-1-propyl-1,2,5,6-tetrahydro-3,3′-bipyridine] | – | > 10 | 5 | (42.1% | – | – | > 10 | – | 0.13 | (50.9% | – | – | – | – | – | 0.148 | 0.123 | – |
| CCCN1CC(c2c[nH]c3ncccc23)=C[C@H](C)C1 [Compound 24, 3-(5-methyl-1-propyl-1,2,5,6-tetrahydropyridin-3-yl)-1H-pyrrolo[2,3-b]pyridine] | antagonist | > 10 | 0.86 | (14.8% | – | – | > 10 | 1.67 | – | – | – | 0.871 | – | – | – | – | – | – |
